ChEMBL document CHEMBL1145769, “Novel openers of Ca2+-dependent large-conductance potassium channels: symmetrical pharmacophore and electrophysiological evaluation of bisphenols” (Bioorg Med Chem Lett, 2003)

Experiments:
[1] = molecular target: Calcium-activated potassium channel subunit alpha-1 (Homo sapiens) (UniProt Q12791); test: Maxi-K opening activity on cloned human (hSlo) large- conductance (BK) Ca(2+)-activated K+ channel expressed in Xenopus laevis oocytes at concentration of 20 uM; assay type: functional, cell-based; details: Oocyte
Chain of Calcium-activated potassium channel subunit alpha-1 (Homo sapiens) (Q12791 whole entry): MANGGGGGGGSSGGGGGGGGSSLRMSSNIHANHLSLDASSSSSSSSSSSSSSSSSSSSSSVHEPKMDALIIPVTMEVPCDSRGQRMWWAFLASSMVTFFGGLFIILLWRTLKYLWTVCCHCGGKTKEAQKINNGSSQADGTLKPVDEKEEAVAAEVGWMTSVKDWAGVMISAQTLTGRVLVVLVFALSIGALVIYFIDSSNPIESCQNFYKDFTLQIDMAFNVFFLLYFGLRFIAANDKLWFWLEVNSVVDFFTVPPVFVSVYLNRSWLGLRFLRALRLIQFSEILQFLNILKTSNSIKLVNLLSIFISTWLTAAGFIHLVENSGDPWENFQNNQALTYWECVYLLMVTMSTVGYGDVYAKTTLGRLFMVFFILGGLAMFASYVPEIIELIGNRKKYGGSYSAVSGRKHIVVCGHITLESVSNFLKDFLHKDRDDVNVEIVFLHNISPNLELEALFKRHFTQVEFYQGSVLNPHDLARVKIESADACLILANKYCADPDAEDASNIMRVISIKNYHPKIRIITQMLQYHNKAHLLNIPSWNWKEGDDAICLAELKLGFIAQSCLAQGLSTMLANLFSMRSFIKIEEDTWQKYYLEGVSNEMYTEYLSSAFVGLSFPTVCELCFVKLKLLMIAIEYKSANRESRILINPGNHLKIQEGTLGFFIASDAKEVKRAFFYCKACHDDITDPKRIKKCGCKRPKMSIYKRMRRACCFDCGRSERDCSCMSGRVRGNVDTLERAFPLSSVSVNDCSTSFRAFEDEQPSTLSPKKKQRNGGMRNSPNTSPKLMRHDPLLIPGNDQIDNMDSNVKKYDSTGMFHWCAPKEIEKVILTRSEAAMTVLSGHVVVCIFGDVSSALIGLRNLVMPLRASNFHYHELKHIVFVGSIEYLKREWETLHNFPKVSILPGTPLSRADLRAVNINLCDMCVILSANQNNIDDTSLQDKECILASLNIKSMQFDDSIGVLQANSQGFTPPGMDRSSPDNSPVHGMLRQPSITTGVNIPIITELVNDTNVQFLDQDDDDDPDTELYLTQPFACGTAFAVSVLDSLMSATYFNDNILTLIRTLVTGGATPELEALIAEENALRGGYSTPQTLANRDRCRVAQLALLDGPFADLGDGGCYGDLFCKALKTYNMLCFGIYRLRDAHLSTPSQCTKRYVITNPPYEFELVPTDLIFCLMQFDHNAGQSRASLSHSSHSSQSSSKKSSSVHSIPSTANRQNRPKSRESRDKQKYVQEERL

[2] = pKa value was determined; assay type: physicochemical

| Structure (SMILES) | Control current [1] [%] | pKa [2] |
| --- | --- | --- |
| O=C(Nc1cc(Cl)ccc1O)Nc1cc(Cl)ccc1O | 150 | 8.9 |
| Oc1ccc(Cl)cc1Cc1cc(Cl)ccc1O [DICHLOROPHEN] | 74.3 | 9.3 |
| Oc1ccc(Br)cc1-c1cc(Br)ccc1O | 97 | 8.6 |
| CCCc1ccc(O)c(-c2cc(CCC)ccc2O)c1 | 95.9 | 9.3 |
| O=C(Nc1cccc(C(F)(F)F)c1)Nc1cc(Cl)ccc1O | 124 | 9.3 |
| Oc1c(Cl)cc(Cl)cc1Cc1cc(Cl)cc(Cl)c1O | 245 | 7.7 |
| Oc1ccc(F)cc1Cc1cc(F)ccc1O | 83.2 | 9.7 |
| Oc1ccc(F)cc1Sc1cc(F)ccc1O | 98.8 | 8.4 |
| Oc1c(Cl)cccc1Cc1cccc(Cl)c1O | 95.9 | 8.2 |
| O=c1[nH]c2cc(C(F)(F)F)ccc2n1-c1cc(Cl)ccc1O | 132 | 9.6 |
| Oc1c(Br)cc(Br)cc1-c1cc(Br)cc(Br)c1O [BROMOPHENE] | 264 | 6.7 |
| CN(C)Cc1cc(Cl)cc(Cc2cc(Cl)cc(CN(C)C)c2O)c1O | 94.7 | 9.6 |
| Oc1c(Cl)cc(Cl)cc1Sc1cc(Cl)cc(Cl)c1O [BITHIONOL] | 199 | 6.3 |
| Oc1c(Cl)cc(Cl)c(Cl)c1Cc1c(O)c(Cl)cc(Cl)c1Cl [HEXACHLOROPHENE] | 237 | 6.6 |
| O=C(Nc1cc(Cl)cc(Cl)c1O)Nc1cc(Cl)cc(Cl)c1O | 196 | 7.4 |
